Measurements: patent US9452154B2, “Methods for treating HCV” (Gilead Sciences, Inc., priority 2010, dated 2016)
Values joined by “and” are separate entries in the source; they are usually repeats but may differ in a detail not shown here. Identical values can stand only once. Like-named read-outs stand apart in the source and are kept apart here.

How the values were obtained:
HCV genotype 1a replicon [1] = experiment: Biological Example 3: HCV genotype 1a replicon assay, EC50; format: cell-based; details: Hepatitis C virus, 72 h, 3 days, read-out: EC50
[2] = Biological Example 3: cytotoxicity (calcein AM), CC50; format: cell-based; details: human, Huh-7 cells carrying a HCV genotype 1a replicon; HCV genotype 1a replicon cells; calcein AM
GT-1b Huh-lunet cells = experiment: Biological Example 4: antiviral combination studies with Compound 5 (MacSynergy II); format: cell-based, HCV; details: in combination with Compound 5, 1b replicon cells
HCV 1b replicon system = experiment: Biological Example 5: antiviral combination studies with Compound 6 (MacSynergy II); format: cell-based; details: in combination with Compound 6
[3] = system: Genotype 1b replicon cells; experiment: Biological Example 6: compound concentration required to suppress replicon RNA by 1-1.5 log over 6 days (QRT-PCR); format: cell-based, HCV; details: 6 day assay
Procedure: Flasks were incubated at 37° C., media and compounds were refreshed every two days. After 6 days of incubation the replicon cells were collected for RNA extraction and replicon RNA QRT-PCR analysis.

[4] = system: NS3 GT1a mutant replicons; format: cell-based, HCV
[5] = system: NS3 GT1b mutant replicons; format: cell-based, HCV
[6] = system: Genotype 1b replicon cells; experiment: Biological Example 6: compound combination replicon cure assay; details: after 6 days treatment, G418 for 14 days; Compound 6 4 pM, Compound 4 1000 nM, Compound 1 10 nM, Compound 3 26.25 nM
[7] = system: Huh-7 cells carrying a HCV genotype 1a replicon; experiment: Biological Example 3: cytotoxicity in combination studies (MacSynergy II); details: in combination with Compound 4
HCV genotype 1a replicon [8] = experiment: Biological Example 3: antiviral combination studies with Compound 4 (MacSynergy II); details: in combination with Compound 4
HCV 1b RLuc = experiment: microbe, parasite or virus in culture; format: cell-based; details: Hepatitis C virus, read-out: antiviral potency [EC50]
[9] = system: GT1b and GT1a mutant replicons; experiment: Biological Example 8: summary of cross resistance of mutant replicons; format: cell-based, HCV; details: all single NS3 PI-resistant mutants
Huh-luc replicon cells = experiment: Biological Example 5: cellular cytotoxicity (CellTiter-Glo); details: highest concentrations tested (column Concentration(s)); relative to untreated controls
Procedure: Replicon cells were seeded and treated with drugs as described for the antiviral combination studies above. After three day incubation at 37° C., the culture media was removed and cells were lysed and assayed for cytotoxicity using a CellTiter-Glo Luminescent Cell Viability Assay (Promega) according to the manufacturer's instructions. Relative Light Units were converted into percentages relative to the untreated controls (defined as 100%).

[10] = Drug-drug interaction: exposure on co-administration with Compound 2
[11] = mutant R155K + Y488H (first line, r20)
[12] = mutant R155K + Y488H (second line, r26)

## CC[C@@H]1C[C@]1(NC(=O)[C@@H]1C[C@@H](Oc2cc(-c3csc(NC(C)C)n3)nc3c(Cl)c(OCCN4CCOCC4)ccc23)CC1C(=O)[C@@H](NC(=O)O[C@@H]1C[C@@H]2C[C@@H]2C1)C(C)(C)C)C(=O)O (some centres unmarked) [Compound 3]
HCV genotype 1a replicon [1]
  EC50: 49 ± 18 nM
[2]
  CC50 at 3 days: > 22200 nM
GT-1b Huh-lunet cells
  Antagonism Volume: −2 ± 2 nM^2
  Interaction: Additive
  Synergy Volume: 19 ± 13 nM^2
HCV 1b replicon system
  Antagonism Volume: −0.1 ± 0.2 nM^2
  Interaction: Strong Synergy
  Synergy Volume: 132 nM^2 and 132 ± 44 nM^2
[3]
  Compound concentration able to induce replicon RNA 1-1.5 log drop: 26.25 nM
[4]; mutant A156T
  fold change in EC50 vs wild-type GT1a: >141 fold
[4]; mutant D168A
  fold change in EC50 vs wild-type GT1a: >300 fold
[4]; mutant D168E
  fold change in EC50 vs wild-type GT1a: 25.1 fold
[4]; mutant D168G
  fold change in EC50 vs wild-type GT1a: >138 fold
[4]; mutant D168H
  fold change in EC50 vs wild-type GT1a: >250 fold
[4]; mutant D168N
  fold change in EC50 vs wild-type GT1a: 20.5 fold
[4]; mutant D168V
  fold change in EC50 vs wild-type GT1a: >156 fold
[4]; mutant D168Y
  fold change in EC50 vs wild-type GT1a: >175 fold
[4]; mutant R155I
  fold change in EC50 vs wild-type GT1a: 0.9 fold
[4]; mutant R155K
  fold change in EC50 vs wild-type GT1a: >150 fold
[4]; mutant R155K + L31M
  fold change in EC50 vs wild-type GT1a: >100 fold
[4]; mutant R155K + L31M + Y448H
  fold change in EC50 vs wild-type GT1a: >145 fold
[4]; mutant R155K + M28T
  fold change in EC50 vs wild-type GT1a: >100 fold
[4]; mutant R155K + M28T + Y448H
  fold change in EC50 vs wild-type GT1a: 89.0 fold
[4]; mutant R155K + Q30H + Y448H
  fold change in EC50 vs wild-type GT1a: >130 fold
[4]; mutant R155K + Q30R
  fold change in EC50 vs wild-type GT1a: >100 fold
[4]; mutant R155K + Y93H
  fold change in EC50 vs wild-type GT1a: >100 fold
[4]; [11]
  fold change in EC50 vs wild-type GT1a: >130 fold
[4]; [12]
  fold change in EC50 vs wild-type GT1a: >100 fold
[4]; mutant R155M
  fold change in EC50 vs wild-type GT1a: 1.5 fold
[4]; mutant R155S
  fold change in EC50 vs wild-type GT1a: 4.0 fold
[4]; mutant R155T
  fold change in EC50 vs wild-type GT1a: 2.3 fold
[4]; mutant R155W
  fold change in EC50 vs wild-type GT1a: 32.1 fold
[4]; mutant R155k + Q30H
  fold change in EC50 vs wild-type GT1a: >100 fold
[5]; mutant R155L
  fold change in EC50 vs wild-type GT1b: 1.2 fold and 0.9 fold
[6]
  Uncured colony number: 989
[7]
  Antagonism Volume (cytotoxicity): 0 ± 0 nM^2%
  Interaction (cytotoxicity): Additivity (Additivity: ≦25 and >−25 nM^2%)
  Synergy Volume (cytotoxicity): 3 ± 5 nM^2%
HCV genotype 1a replicon [8]
  Antagonism Volume: −3 ± 2 nM^2%
  Synergy Volume: 26 ± 6 nM^2%

## COC(=O)N[C@H](C(=O)N1CC2(CC2)C[C@H]1c1ncc(-c2ccc3c(c2)C(F)(F)c2cc(-c4ccc5nc([C@@H]6[C@H]7CC[C@H](C7)N6C(=O)[C@@H](NC(=O)OC)C(C)C)[nH]c5c4)ccc2-3)[nH]1)C(C)C [Compound 6, (1-{3-[6-(9,9-Difluoro-7-{2-[5-(2-methoxycarbonylamino-3-methyl-butyryl)-5-aza-spiro[2.4]hept-6-yl]-3H-imidazol-4-yl}-9H-fluoren-2-yl)-1H-benzoimidazol-2-yl]-2-aza-bicyclo[2.2.1]heptane-2-carbonyl}-2-methyl-propyl)-carbamic acid methyl ester]
HCV 1b RLuc
  EC50: 0.0045 nM
HCV genotype 1a replicon [1]
  EC50: 0.033 ± 0.011 nM
[2]
  CC50 at 3 days: > 44400 nM
GT-1b Huh-lunet cells
  Antagonism Volume: 0 ± 0 nM^2
  Synergy Volume: 34 ± 19 nM^2
[3]
  Compound concentration able to induce replicon RNA 1-1.5 log drop: 0.004 nM
[4]; mutant A156T
  fold change in EC50 vs wild-type GT1a: 0.2 fold
[4]; mutant D168A
  fold change in EC50 vs wild-type GT1a: 1.1 fold
[4]; mutant D168E
  fold change in EC50 vs wild-type GT1a: 1.3 fold
[4]; mutant D168G
  fold change in EC50 vs wild-type GT1a: 0.8 fold
[4]; mutant D168H
  fold change in EC50 vs wild-type GT1a: 1.1 fold
[4]; mutant D168N
  fold change in EC50 vs wild-type GT1a: 1.2 fold
[4]; mutant D168V
  fold change in EC50 vs wild-type GT1a: 1.2 fold
[4]; mutant D168Y
  fold change in EC50 vs wild-type GT1a: 0.8 fold
[4]; mutant R155I
  fold change in EC50 vs wild-type GT1a: 0.5 fold
[4]; mutant R155K
  fold change in EC50 vs wild-type GT1a: 0.6 fold
[4]; mutant R155K + L31M
  fold change in EC50 vs wild-type GT1a: 96.9 fold
[4]; mutant R155K + L31M + Y448H
  fold change in EC50 vs wild-type GT1a: >330 fold
[4]; mutant R155K + M28T
  fold change in EC50 vs wild-type GT1a: 12.3 fold
[4]; mutant R155K + M28T + Y448H
  fold change in EC50 vs wild-type GT1a: 53.0 fold
[4]; mutant R155K + Q30H + Y448H
  fold change in EC50 vs wild-type GT1a: 55.0 fold
[4]; mutant R155K + Q30R
  fold change in EC50 vs wild-type GT1a: 85.3 fold
[4]; mutant R155K + Y93H
  fold change in EC50 vs wild-type GT1a: >3000 fold
[4]; [11]
  fold change in EC50 vs wild-type GT1a: 1.1 fold
[4]; [12]
  fold change in EC50 vs wild-type GT1a: 0.5 fold
[4]; mutant R155M
  fold change in EC50 vs wild-type GT1a: 0.3 fold
[4]; mutant R155S
  fold change in EC50 vs wild-type GT1a: 0.3 fold
[4]; mutant R155T
  fold change in EC50 vs wild-type GT1a: 0.3 fold
[4]; mutant R155W
  fold change in EC50 vs wild-type GT1a: 0.7 fold
[4]; mutant R155k + Q30H
  fold change in EC50 vs wild-type GT1a: 49.4 fold
[5]; mutant A156D
  fold change in EC50 vs wild-type GT1b: 0.4 fold
[5]; mutant A156G
  fold change in EC50 vs wild-type GT1b: 0.9 fold
[5]; mutant A156T
  fold change in EC50 vs wild-type GT1b: 0.4 fold
[5]; mutant A156V
  fold change in EC50 vs wild-type GT1b: 0.4 fold
[5]; mutant D168A
  fold change in EC50 vs wild-type GT1b: 0.8 fold
[5]; mutant D168E
  fold change in EC50 vs wild-type GT1b: 1.0 fold
[5]; mutant D168E + L31V + Y448H
  fold change in EC50 vs wild-type GT1b: >210 fold
[5]; mutant D168E + Y93H + Y448H
  fold change in EC50 vs wild-type GT1b: >613 fold
[5]; mutant D168E + Y448H
  fold change in EC50 vs wild-type GT1b: 0.7 fold
[5]; mutant D168G
  fold change in EC50 vs wild-type GT1b: 0.6 fold
[5]; mutant D168H
  fold change in EC50 vs wild-type GT1b: 1.2 fold
[5]; mutant D168H + C445F
  fold change in EC50 vs wild-type GT1b: 0.3 fold
[5]; mutant D168L + C445F
  fold change in EC50 vs wild-type GT1b: 0.4 fold
[5]; mutant D168N
  fold change in EC50 vs wild-type GT1b: 0.9 fold
[5]; mutant D168T
  fold change in EC50 vs wild-type GT1b: 0.8 fold
[5]; mutant D168V
  fold change in EC50 vs wild-type GT1b: 0.9 fold
[5]; mutant D168V + C445F
  fold change in EC50 vs wild-type GT1b: 0.4 fold
[5]; mutant D168V + L31V + Y448H
  fold change in EC50 vs wild-type GT1b: >126 fold
[5]; mutant D168V + Y93H + Y448H
  fold change in EC50 vs wild-type GT1b: >664 fold
[5]; mutant D168V + Y448H
  fold change in EC50 vs wild-type GT1b: 0.5 fold
[5]; mutant D168Y
  fold change in EC50 vs wild-type GT1b: 0.7 fold
[5]; mutant L31V + D168E
  fold change in EC50 vs wild-type GT1b: 228.7 fold
[5]; mutant L31V + D168V
  fold change in EC50 vs wild-type GT1b: 117.5 fold
[5]; mutant R155C
  fold change in EC50 vs wild-type GT1b: 0.9 fold
[5]; mutant R155G
  fold change in EC50 vs wild-type GT1b: 0.7 fold
[5]; mutant R155K
  fold change in EC50 vs wild-type GT1b: 2.3 fold
[5]; mutant R155L
  fold change in EC50 vs wild-type GT1b: 0.7 fold
[5]; mutant R155Q
  fold change in EC50 vs wild-type GT1b: 0.7 fold
[5]; mutant R155W
  fold change in EC50 vs wild-type GT1b: 0.4 fold
[5]; mutant Y93H + D168E
  fold change in EC50 vs wild-type GT1b: >570 fold
[5]; mutant Y93H + D168V
  fold change in EC50 vs wild-type GT1b: >1140 fold
[9]
  susceptibility of mutants: full susceptibility
Huh-luc replicon cells
  Cell Viability %: 99 ± 1%
[10]
  increase of exposure when combined with Compound 2: approximately 5 ×
[7]
  Antagonism Volume (cytotoxicity): 0 ± 0 nM^2%
  Interaction (cytotoxicity): Additivity (Additivity: ≦25 and >−25 nM^2%)
  Synergy Volume (cytotoxicity): 8 ± 4 nM^2%
HCV genotype 1a replicon [8]
  Antagonism Volume: −7 ± 7 nM^2%
  Interaction: Additivity (Additivity: ≦25 and >−25 nM^2%)
  Synergy Volume: 19 ± 17 nM^2%
